Assay results reported in ChEMBL document CHEMBL4196124, “Reverse Hydroxamate Inhibitors of Bone Morphogenetic Protein 1” (ACS Med Chem Lett, 2018).

What was measured:
[1] = target: Macrophage metalloelastase (Homo sapiens, UniProt P39900); assay: Inhibition of MMP12 (unknown origin)
[2] = target: T1, Tolloid-like protein 1 (Homo sapiens, UniProt O43897); assay: Inhibition of recombinant human full length TLL1 using ((5-FAM)-ELIDQYDVQRDDSSDGSLED-K(5,6 TAMRA)-CONH2) as substrate preincubated for 10 mins followed by substrate addition measured after 60 mins
T1 sequence (O43897 whole entry): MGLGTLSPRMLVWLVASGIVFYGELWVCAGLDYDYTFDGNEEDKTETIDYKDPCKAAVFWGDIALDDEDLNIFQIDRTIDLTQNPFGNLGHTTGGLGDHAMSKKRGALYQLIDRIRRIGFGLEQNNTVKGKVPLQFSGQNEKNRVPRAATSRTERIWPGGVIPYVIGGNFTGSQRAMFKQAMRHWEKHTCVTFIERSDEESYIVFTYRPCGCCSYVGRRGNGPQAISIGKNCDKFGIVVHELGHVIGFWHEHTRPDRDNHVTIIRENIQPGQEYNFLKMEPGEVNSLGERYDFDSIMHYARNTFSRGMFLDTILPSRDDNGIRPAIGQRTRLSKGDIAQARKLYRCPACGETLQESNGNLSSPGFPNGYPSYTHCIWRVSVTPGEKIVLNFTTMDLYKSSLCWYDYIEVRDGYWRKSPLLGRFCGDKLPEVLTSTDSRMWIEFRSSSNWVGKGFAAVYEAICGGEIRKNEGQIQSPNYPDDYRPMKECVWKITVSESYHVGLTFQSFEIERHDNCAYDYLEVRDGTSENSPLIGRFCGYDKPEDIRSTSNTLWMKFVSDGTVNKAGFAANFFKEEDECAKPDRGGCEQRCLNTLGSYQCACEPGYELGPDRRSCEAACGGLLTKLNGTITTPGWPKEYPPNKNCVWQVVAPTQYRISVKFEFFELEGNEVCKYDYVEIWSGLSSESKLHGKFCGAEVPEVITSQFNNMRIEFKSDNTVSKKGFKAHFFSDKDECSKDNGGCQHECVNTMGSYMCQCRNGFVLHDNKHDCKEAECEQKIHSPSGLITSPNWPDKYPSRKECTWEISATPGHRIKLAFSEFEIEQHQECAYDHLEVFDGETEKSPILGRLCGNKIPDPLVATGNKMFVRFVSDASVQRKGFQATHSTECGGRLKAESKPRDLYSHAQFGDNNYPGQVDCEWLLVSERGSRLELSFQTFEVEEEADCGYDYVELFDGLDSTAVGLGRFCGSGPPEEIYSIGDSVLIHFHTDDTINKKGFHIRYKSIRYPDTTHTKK

[3] = species: Homo sapiens; assay: Selectivity ratio of IC50 for recombinant human C-terminal MMP2 (81 to 423 residues) catalytic domain expressed in Escherichia coli to IC50 for recombinant human N-terminal 6His/flag-tagged BMP1 (121 to 721 residues) expressed in CHO cells
[4] = tested on: Rattus norvegicus; assay: Dose normalized AUC in po dosed rat; type: ADME, organism-based; conditions: in vivo
[5] = species: Homo sapiens; assay: Selectivity ratio of IC50 for recombinant human C-terminal MMP14 (Tyr92 to Arg278 residues) catalytic domain expressed in Escherichia coli to IC50 for recombinant human N-terminal 6His/flag-tagged BMP1 (121 to 721 residues) expressed in CHO cells
[6] = species: Homo sapiens; assay: Selectivity ratio of IC50 for recombinant human C-terminal MMP9 (88 to 438 residues) catalytic domain expressed in Escherichia coli to IC50 for recombinant human N-terminal 6His/flag-tagged BMP1 (121 to 721 residues) expressed in CHO cells
[7] = species: Homo sapiens; assay: Selectivity ratio of IC50 for ACE2 (unknown origin) to IC50 for recombinant human N-terminal 6His/flag-tagged BMP1 (121 to 721 residues) expressed in CHO cells; type: cell-based
[8] = species: Homo sapiens; assay: Selectivity ratio of IC50 for recombinant human His-tagged TACE (1 to 671 residues) expressed in insect cells to IC50 for recombinant human N-terminal 6His/flag-tagged BMP1 (121 to 721 residues) expressed in CHO cells
[9] = species: Homo sapiens; assay: Selectivity ratio of IC50 for recombinant human C-terminal MMP12 (84 to 255 residues) catalytic domain expressed in Escherichia coli to IC50 for recombinant human N-terminal 6His/flag-tagged BMP1 (121 to 721 residues) expressed in CHO cells
[10] = species: Homo sapiens; assay: Selectivity ratio of IC50 for recombinant human C-terminal MMP1 (81 to 249 residues) catalytic domain expressed in Escherichia coli to IC50 for recombinant human N-terminal 6His/flag-tagged BMP1 (121 to 721 residues) expressed in CHO cells

Chain of Macrophage metalloelastase (P39900 whole entry): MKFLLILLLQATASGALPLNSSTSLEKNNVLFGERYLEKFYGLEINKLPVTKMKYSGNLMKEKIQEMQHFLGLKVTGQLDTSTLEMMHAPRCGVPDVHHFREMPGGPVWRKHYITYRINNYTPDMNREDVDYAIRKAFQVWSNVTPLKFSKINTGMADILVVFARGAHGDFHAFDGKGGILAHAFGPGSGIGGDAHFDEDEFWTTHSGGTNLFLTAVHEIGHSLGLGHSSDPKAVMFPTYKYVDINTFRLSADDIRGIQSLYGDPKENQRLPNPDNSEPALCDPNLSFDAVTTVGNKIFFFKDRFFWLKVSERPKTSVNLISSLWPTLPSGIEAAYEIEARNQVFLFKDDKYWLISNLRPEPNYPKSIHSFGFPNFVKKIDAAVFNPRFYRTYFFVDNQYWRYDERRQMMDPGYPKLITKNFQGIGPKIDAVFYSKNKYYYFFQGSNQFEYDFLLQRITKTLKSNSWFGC

CCCCC[C@@H](C(=O)NCNC(=O)c1ccc(-c2ccccc2)o1)[C@@H](CC)N(O)C=O
IC50 [1]: 10 µM
IC50 [2]: 0.1 µM
Ratio IC50 [3]: > 30
AUC/dose [4]: 1.6 kg·h/L
Ratio IC50 [5]: > 30
Ratio IC50 [6]: > 30
Ratio IC50 [7]: > 30
Ratio IC50 [8]: > 30
Ratio IC50 [9]: > 30
Ratio IC50 [10]: > 30
